Earlier results on three compounds are cited in patent US5140036A, “1,3,5-trisubstituted-1,2,4-triazole compounds for treatment of circulatory disorders” (priority 1990, dated 1992).

For one data set, the system named is angiotensin II. The following applies: series of binding experiments, functional assays and in vivo tests.
The subject of data set [1] is angiotensin II at its receptors. The following applies: commercially-available peptidic angiotensin II antagonists.

On to `CCCCc1nc(Cl)c(CC(=O)O)n1Cc1ccccc1Cl` [2-n-butyl-4-chloro-1-(2-chlorobenzyl)imidazole-5-acetic acid], for which the “angiotensin II antagonist activity” value in the data set on angiotensin II was “specific competitive angiotensin II antagonist activity”. On to `CNCC(=O)N[C@@H](CCCN=C(N)N)C(=O)N[C@H](C(=O)N[C@@H](Cc1ccc(O)cc1)C(=O)N[C@H](C(=O)N[C@@H](Cc1cnc[nH]1)C(=O)N1CCC[C@H]1C(=O)N[C@@H](C)C(=O)O)C(C)C)C(C)C` [Saralasin], for which the residual agonist activity entry in data set [1] is on record as “significant residual agonist activity”. For `CCCCc1nc(Cl)c(CC(=O)O)n1Cc1ccccc1[N+](=O)[O-]` [2-butyl-4-chloro-1-(2-nitrobenzyl)imidazole-5-acetic acid], the “angiotensin II antagonist activity” value with angiotensin II is given as “specific competitive angiotensin II antagonist activity”.
